The values below come from patent US20080275058A1, “N-Substituted-1H-Quinoline-2,4-Diones, Preparation Method Thereof, And Pharmaceutical Composition Containing The Same” (KOREA RESEARCH INSTITUTE OF CHEMICAL TECHNOLOGY, priority 2005, published 2008).

Data set [1] concerns the target T1, Human serotonin 5-HT6 receptor (Homo sapiens, UniProt P50406).
T1 construct: made in house; host or cells: insect Sf21 cells (baculovirus vector BacPAK8)
The experiment in a line: [3H]LSD binding assay on cloned 5-HT6 receptor membranes. Conditions: for binding affinity at 5-HT6 receptor labeled by [3H]LSD, in words: comment on Table 2.

The next data set deals with T2, 5-HT7 (Homo sapiens, UniProt P34969).
T2 construct: purchased Euroscreen/BioSignal Packard Inc
The experiment in a line: Radioligand binding, 5-HT7 ([3H]LSD). As to conditions: Table 4; [3H]LSD 3 nM; read-out: Binding affinity, IC50 (nM) 5-HT7.

The next data set concerns the target T3, hD3 (Homo sapiens, UniProt P35462).
T3 construct: purchased BioSignal Packard Inc., Montreal, Canada
The experiment in a line: Radioligand binding, dopamine D3 ([3H]spiperone). Conditions: Table 4; [3H]spiperone 1 nM; read-out: Binding affinity, IC50 (nM) D3. On the procedure:
(§1) 2-2: Binding assays of Dopamine Receptor Family
(§2) The radioligands used were [^3H] spiperone (for hD2L and hD3 receptors, 1 nM) and [^3H] YM-09151-2 (for hD4.2 receptor, 0.06 nM). Radioligand bindings were performed by the protocols provided by the supplier of receptor membranes (BioSignal Packard Inc., Montreal, Canada). Briefly, the buffer used in D2 or D3 receptor binding assay was 50 mM Tris-HCl (pH 7.4), 10 mM MgCl2, 1 mM EDTA, or 50 mM Tris-HCl (pH 7.4), 5 mM MgCl2, 5 mM EDTA, 5 mM KCl, 1.5 mM CaCl2, 120 mM NaCl, respectively. In [^3H] YM-09151-2 receptor binding assays, the buffer containing 50 mM Tris-HCl (pH 7.4), 5 mM MgCl2, 5 mM EDTA, 5 mM KCl and 1.5 mM CaCl2 was used. […] Competition binding studies were carried out with 7-8 concentrations of the test compound run in duplicate tubes, and isotherms from three assays were calculated by computerized nonlinear regression analysis (GraphPad Prism Program, San Diego, […]) to yield median inhibitory concentration (IC50) values.

The next data set has as its target D1 (Homo sapiens, UniProt P21728). The data set can be described thus: Radioligand binding, dopamine D1. As to conditions: Table 4; read-out: Binding affinity, IC50 (nM) D1.
The target of a further data set is T4, 5-HT2a (Homo sapiens, UniProt P28223).
T4 construct: purchased Euroscreen/BioSignal Packard Inc
The data set can be described thus: Radioligand binding, 5-HT2a ([3H]Ketanserin). As to conditions: Table 4; [3H]Ketanserin 1 nM; read-out: Binding affinity, IC50 (nM) 5-HT2a.

The target in a further data set is T5, hD2L (Homo sapiens, UniProt P14416).
T5 construct: purchased BioSignal Packard Inc., Montreal, Canada
The experiment in a line: Radioligand binding, dopamine D2 ([3H]spiperone). As to conditions: Table 4; [3H]spiperone 1 nM; read-out: Binding affinity, IC50 (nM) D2. On the procedure: as §1, §2

The next data set addresses T6, 5-HT1a (Homo sapiens, UniProt P08908).
T6 construct: purchased Euroscreen/BioSignal Packard Inc
T6 sequence (P08908 1-422): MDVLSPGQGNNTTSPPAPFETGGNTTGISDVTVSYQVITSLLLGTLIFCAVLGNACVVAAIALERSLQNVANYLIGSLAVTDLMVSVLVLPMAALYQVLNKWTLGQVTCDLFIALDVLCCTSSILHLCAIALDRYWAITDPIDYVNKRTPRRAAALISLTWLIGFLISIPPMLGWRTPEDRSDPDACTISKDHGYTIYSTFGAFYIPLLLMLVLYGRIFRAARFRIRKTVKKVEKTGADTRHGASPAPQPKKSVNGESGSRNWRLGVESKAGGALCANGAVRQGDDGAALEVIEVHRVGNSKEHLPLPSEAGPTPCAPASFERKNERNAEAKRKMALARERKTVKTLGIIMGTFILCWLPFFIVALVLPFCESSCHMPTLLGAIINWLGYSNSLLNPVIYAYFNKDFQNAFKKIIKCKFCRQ
The experiment in a line: Radioligand binding, 5-HT1a ([3H]8-OH-DPAT). Conditions: Table 4; [3H]8-OH-DPAT 0.5 nM; read-out: Binding affinity, IC50 (nM) 5-HT1a. The protocol: Radioligand bindings were performed according to the test method provided by the supplier of receptor membrane (Euroscreen/BioSignal Packard Inc.). The detailed assay conditions and the results were shown in the following Table 3 and Table 4, respectively.

The next data set addresses T7, hD4.2 receptor (Homo sapiens, UniProt P21917, DEL265-296).
T7 construct: purchased BioSignal Packard Inc., Montreal, Canada
T7 sequence (P21917 with tags, fused parts or gaps DEL265-296): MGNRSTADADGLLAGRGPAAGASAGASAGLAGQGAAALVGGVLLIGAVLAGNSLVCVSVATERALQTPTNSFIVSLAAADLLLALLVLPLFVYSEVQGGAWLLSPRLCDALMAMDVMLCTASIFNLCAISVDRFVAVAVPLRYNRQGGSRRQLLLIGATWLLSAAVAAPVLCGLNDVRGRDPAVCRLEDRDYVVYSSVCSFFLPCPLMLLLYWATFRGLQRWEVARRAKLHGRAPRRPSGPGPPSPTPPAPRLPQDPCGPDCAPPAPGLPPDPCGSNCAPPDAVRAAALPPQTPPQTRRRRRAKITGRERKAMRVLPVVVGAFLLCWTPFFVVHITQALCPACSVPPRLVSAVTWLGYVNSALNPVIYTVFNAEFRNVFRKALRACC
The experiment in a line: Radioligand binding, dopamine D4 ([3H]YM-09151-2). Conditions: Table 4; [3H]YM-09151-2 0.06 nM; read-out: Binding affinity, IC50 (nM) D4. On the procedure: as §1, §2

The next data set deals with T8, 5-HT2c (Homo sapiens, UniProt P28335).
T8 construct: purchased Euroscreen/BioSignal Packard Inc
T8 sequence (P28335 33-458): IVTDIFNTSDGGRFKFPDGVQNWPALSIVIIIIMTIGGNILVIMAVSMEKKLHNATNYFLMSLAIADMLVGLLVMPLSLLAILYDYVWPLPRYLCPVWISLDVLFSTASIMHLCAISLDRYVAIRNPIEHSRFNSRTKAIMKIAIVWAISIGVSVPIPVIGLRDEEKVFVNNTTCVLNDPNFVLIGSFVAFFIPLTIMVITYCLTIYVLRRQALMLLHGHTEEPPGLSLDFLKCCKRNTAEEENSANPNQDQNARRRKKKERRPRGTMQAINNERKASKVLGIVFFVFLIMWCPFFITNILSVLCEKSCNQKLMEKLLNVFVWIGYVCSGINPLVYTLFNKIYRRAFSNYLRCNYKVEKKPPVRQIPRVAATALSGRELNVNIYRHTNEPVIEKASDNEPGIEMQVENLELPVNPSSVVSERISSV
The data set can be described thus: Radioligand binding, 5-HT2c ([3H]Mesulergine). Conditions: Table 4; [3H]Mesulergine 1 nM; read-out: Binding affinity, IC50 (nM) 5-HT2c.

The mark [2] stands for this setting: Table 2, 1.87 nM [3H]LSD, 37 C, 60 min, read-out: IC50 (nM), binding affinity to the 5-HT6 receptor.
Where [3] appears, read: Table 4, read-out: Binding affinity, IC50 (nM) 5-HT6.

Molecules are shown by their SMILES. Like-named read-outs stand apart in the source and are kept apart here.

T3 sequence (P35462 whole entry): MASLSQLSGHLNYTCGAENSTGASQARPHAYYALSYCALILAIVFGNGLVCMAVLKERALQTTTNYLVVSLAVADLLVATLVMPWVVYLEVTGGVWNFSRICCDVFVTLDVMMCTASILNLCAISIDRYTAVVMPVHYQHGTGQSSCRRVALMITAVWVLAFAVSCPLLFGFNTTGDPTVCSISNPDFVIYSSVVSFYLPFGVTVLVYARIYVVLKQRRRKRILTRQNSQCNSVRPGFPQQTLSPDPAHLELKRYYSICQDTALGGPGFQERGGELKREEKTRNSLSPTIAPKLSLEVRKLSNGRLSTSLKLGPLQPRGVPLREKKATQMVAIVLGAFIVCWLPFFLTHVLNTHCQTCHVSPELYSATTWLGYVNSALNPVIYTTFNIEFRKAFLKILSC
T4 sequence (P28223 whole entry): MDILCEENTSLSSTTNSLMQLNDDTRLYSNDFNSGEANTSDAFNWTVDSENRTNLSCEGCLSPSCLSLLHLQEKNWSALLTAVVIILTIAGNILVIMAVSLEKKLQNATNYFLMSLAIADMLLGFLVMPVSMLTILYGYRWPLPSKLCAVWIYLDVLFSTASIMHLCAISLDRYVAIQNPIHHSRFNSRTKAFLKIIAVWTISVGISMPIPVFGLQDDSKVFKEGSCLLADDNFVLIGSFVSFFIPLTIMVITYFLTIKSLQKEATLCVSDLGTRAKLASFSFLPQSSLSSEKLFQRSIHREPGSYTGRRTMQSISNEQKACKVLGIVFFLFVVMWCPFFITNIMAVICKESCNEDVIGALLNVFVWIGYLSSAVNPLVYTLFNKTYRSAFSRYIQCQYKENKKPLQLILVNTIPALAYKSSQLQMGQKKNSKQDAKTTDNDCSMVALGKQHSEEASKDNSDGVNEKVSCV
T1 sequence (P50406 whole entry): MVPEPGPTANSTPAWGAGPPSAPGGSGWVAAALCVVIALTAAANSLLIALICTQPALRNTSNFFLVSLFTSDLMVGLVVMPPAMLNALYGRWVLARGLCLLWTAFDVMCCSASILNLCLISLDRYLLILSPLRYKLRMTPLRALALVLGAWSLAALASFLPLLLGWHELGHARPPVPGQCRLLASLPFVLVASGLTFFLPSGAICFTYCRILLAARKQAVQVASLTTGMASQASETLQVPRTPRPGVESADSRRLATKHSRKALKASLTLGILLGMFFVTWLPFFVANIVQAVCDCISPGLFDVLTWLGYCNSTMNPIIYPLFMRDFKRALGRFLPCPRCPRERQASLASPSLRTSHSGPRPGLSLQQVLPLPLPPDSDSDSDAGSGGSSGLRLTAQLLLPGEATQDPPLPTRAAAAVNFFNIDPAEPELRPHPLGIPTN
Chain of D1 (P21728 whole entry): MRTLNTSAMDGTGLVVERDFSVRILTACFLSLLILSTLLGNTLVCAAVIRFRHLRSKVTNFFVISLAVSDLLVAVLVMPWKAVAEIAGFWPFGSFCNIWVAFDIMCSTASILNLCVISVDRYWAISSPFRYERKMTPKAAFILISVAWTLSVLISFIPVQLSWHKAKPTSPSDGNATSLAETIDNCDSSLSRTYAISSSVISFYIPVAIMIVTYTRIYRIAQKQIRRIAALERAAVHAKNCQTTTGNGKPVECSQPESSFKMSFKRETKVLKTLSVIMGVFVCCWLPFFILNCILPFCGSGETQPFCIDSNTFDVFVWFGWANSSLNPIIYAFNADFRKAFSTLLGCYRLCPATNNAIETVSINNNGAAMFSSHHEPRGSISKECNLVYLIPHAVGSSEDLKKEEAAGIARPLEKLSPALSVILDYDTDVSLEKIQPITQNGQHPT
T5 sequence (P14416 whole entry): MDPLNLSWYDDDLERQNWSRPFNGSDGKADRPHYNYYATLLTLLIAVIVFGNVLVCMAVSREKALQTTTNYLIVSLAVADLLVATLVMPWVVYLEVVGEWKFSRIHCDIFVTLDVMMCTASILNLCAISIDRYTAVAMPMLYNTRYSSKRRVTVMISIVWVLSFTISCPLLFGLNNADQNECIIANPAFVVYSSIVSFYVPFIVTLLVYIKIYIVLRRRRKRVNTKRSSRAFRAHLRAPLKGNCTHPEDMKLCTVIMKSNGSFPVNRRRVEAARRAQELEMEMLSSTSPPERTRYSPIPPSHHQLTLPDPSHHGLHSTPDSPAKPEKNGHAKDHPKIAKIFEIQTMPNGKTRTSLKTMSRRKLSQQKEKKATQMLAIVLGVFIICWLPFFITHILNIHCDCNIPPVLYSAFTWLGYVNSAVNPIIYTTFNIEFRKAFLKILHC
T2 sequence (P34969 whole entry): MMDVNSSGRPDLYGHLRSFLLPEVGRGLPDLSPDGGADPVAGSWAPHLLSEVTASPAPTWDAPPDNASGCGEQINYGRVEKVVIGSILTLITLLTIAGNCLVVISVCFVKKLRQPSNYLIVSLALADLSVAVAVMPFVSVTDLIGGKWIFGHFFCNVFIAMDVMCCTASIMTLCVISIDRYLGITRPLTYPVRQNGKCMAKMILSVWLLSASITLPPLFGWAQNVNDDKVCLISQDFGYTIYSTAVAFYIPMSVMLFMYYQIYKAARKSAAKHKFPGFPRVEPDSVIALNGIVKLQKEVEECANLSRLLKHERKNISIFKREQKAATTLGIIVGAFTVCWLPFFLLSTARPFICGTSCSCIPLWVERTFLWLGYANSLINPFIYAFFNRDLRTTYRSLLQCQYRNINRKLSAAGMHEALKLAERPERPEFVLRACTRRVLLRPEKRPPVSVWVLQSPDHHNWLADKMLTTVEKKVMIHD

As to `COc1cccc(C2(C)C(=O)c3c(N4CCNCC4)cc(Cl)cc3N(Cc3ccccc3)C2=O)c1` (stereo not drawn) [Example 50, 1-Benzyl-7-chloro-3-(3-methoxy-phenyl)-3-methyl-5-piperazin-1-yl-1H-quinoline-2,4-dione], the melting point – broadly, the temperature of the solid-liquid transition – lay in the range of 110 to 112 °C. Moreover, the IC50 (commonly the midpoint of a concentration-inhibition curve) in data set [1] (setting [2]) came to 1.8 nM. For the same compound, the IC50 in [1] (setting [3]) is 18.4 nM. Also, the “binding affinity at 5-HT6 receptor labeled by [3H]LSD, in words” value in [1] was “significant affinities”. In addition, the IC50 on 5-HT7 stood at 7640 nM. Besides, at hD3, the IC50 is 9760 nM. Further, on D1, the IC50 came out at 7740 nM. Besides, the IC50 on 5-HT2a worked out at 9150 nM. For the same compound, the IC50 on hD2L came to 7190 nM. In addition, the IC50 on 5-HT1a is over 1000 nM. In addition, on hD4.2 receptor, the IC50 was found to be 9040 nM. Moreover, on 5-HT2c, the IC50 came out at 7470 nM.

`COc1ccc(C2(C)C(=O)c3c(N4CCNCC4)cc(Cl)cc3N(Cc3ccc(-c4ccccc4)cc3)C2=O)cc1` (stereo not drawn) [Example 41, 1-Biphenyl-4-ylmethyl-7-chloro-3-(4-methoxy-phenyl)-3-methyl-5-piperazin-1-yl-1H-quinoline-2,4-dione] returned a melting point of 142 to 144 °C. For the same compound, the IC50 in data set [1] (setting [2]) is 351 nM. Moreover, in data set [1] (setting [3]), the IC50 came out at 15.5 nM. At 5-HT7, the IC50 was 7010 nM. In addition, on hD3, the half-maximal inhibitory concentration (IC50) stood at 9000 nM. Moreover, on D1, the IC50 worked out at 6000 nM. Further, the IC50 on 5-HT2a came out at 8470 nM. The IC50 on hD2L came to 7680 nM. Further, the IC50 at 5-HT1a turned out to be 7810 nM. The IC50 at hD4.2 receptor was determined as 9110 nM. Moreover, the 50% inhibitory concentration (IC50) at 5-HT2c was 8090 nM.

`CC1(c2ccc(Br)cc2)C(=O)c2c(N3CCNCC3)cc(Cl)cc2N(Cc2ccccc2)C1=O` (stereo not drawn) [Example 20, 1-Benzyl-3-(4-bromo-phenyl)-7-chloro-3-methyl-5-piperazin-1-yl-1H-quinoline-2,4-dione] came in with a melting point of 116 to 117 °C. Further, in data set [1] (setting [2]), the IC50 is 1.9 nM. Further, the IC50 in data set [1] (setting [3]) came out at 18.2 nM. In addition, the “binding affinity at 5-HT6 receptor labeled by [3H]LSD, in words” value in [1] is listed as “significant affinities”. Besides, the IC50 at 5-HT7 was found to be 6840 nM. Besides, the IC50 on hD3 was 9380 nM. For the same compound, at D1, the IC50 is 8540 nM. Besides, the IC50 at 5-HT2a is 5700 nM. For the same compound, the IC50 at hD2L is 8250 nM. Also, the IC50 on 5-HT1a worked out at 6360 nM. In addition, on hD4.2 receptor, the IC50 is 8990 nM. The concentration for half-maximal inhibition (IC50) at 5-HT2c was over 10000 nM.

Take `CN1CCN(c2cc(Cl)cc3c2C(=O)C(C)(c2ccc(O)cc2)C(=O)N3Cc2cccc([N+](=O)[O-])c2)CC1` (stereo not drawn) [Example 8, 7-Chloro-3-(4-hydroxy-phenyl)-3-methyl-5-(4-methyl-piperazin-1-yl)-1-(3-nitro-benzyl)-1H-quinoline-2,4-dione]: the melting point was in the range of 262 to 264 °C. In data set [1] (setting [2]), the half-maximal inhibitory concentration (IC50) came to 23.8 nM. The IC50 in [1] (setting [3]) turned out to be 16.8 nM. For the same compound, the IC50 on 5-HT7 stood at 9440 nM. For the same compound, the IC50 on hD3 stood at 9020 nM. Also, the IC50 at D1 is 7040 nM. Also, on 5-HT2a, the IC50 came out at 6950 nM. For the same compound, the IC50 on hD2L came to 7290 nM. Moreover, the IC50 on 5-HT1a is 7510 nM. Moreover, the IC50 at hD4.2 receptor worked out at 9150 nM. Also, the IC50 on 5-HT2c came out at 8810 nM.

In turn, `CC1(c2cccc(O)c2)C(=O)c2c(N3CCNCC3)cc(Cl)cc2N(Cc2ccccc2)C1=O` (stereo not drawn) [Example 51, 1-Benzyl-7-chloro-3-(3-hydroxy-phenyl)-3-methyl-5-piperazin-1-yl-1H-quinoline-2,4-dione] registered a melting point of 238 to 240 °C. Also, the IC50 in data set [1] (setting [2]) amounted to 6.2 nM. The IC50 in data set [1] (setting [3]) was determined as 20.7 nM. Also, at 5-HT7, the IC50 stood at 7580 nM. Moreover, the IC50 at hD3 was 9880 nM. In addition, the IC50 on D1 was found to be 6390 nM. Moreover, the IC50 on 5-HT2a was 7550 nM. The IC50 on hD2L is 8650 nM. Besides, the IC50 at 5-HT1a was 8450 nM. For the same compound, the IC50 on hD4.2 receptor amounted to 9460 nM. Moreover, the IC50 on 5-HT2c was 8740 nM.
